Test results published in article PMC3765993, “The duration of sleep promoting efficacy by dual orexin receptor antagonists is dependent upon receptor occupancy threshold” (BMC Neuroscience, 2013).

Assays:
[1] = system: rhesus monkeys; assay: Rhesus monkey polysomnography (active wake); format: in vivo; conditions: for Active wake late in the inactive phase and next morning (residual sleep effect): 10 mg/kg p.o. 2 h before lights out, 10 mg/kg
Description: Animals were fed on a calorie-controlled diet of laboratory chow supplemented with fruit and vegetables. Water was available ad libitum with the exception of those monkeys trained to perform cognitive tasks, for which access was restricted for up to 4 h prior to and during cognitive testing. Treatment occurred at 14:40 (Zeitgeber time [ZT] 10:10) in a balanced 1-day cross-over design: 1 day of drug or vehicle followed by 6 days of baseline followed by 1 day of vehicle or drug. Cognition tasks were scheduled for next-day evaluation as described below. Sleep/wake architecture was scored according to vigilance state (active wake, quiet wake, delta sleep I, delta sleep II, and REM sleep) at 30-minute intervals and analyzed as previously described. Spectral analysis of continuous EEG was quantified between vehicle and compound after binning continuous frequencies into canonical frequency bands (reported herein: Delta, 0.5 – 4 Hz; Theta, 4.0 – 7 Hz; Gamma, 35.0 – 100.0 Hz). qEEG values are spectral power (uV2) log transformed before analysis and averaged over 30-minute intervals, expressed as means +/− SEM, and compared with vehicle using a mixed-model ANOVA at each time point with random effects for subject and date within subject in the R statistical computing environment (cran.us.r-project.org; the R Foundation for Statistical Computing, Vienna, Austria) using a linear mixed effects model for significance testing.

[2] = system: rhesus monkeys; assay: Monkey Delayed Match to Sample (DMS) task; format: in vivo; conditions: 10 mg/kg p.o., versus vehicle
Text: All cognition testing occurred in the animal’s home cage equipped with a touchscreen. Each DMS trial was initiated with a single ‘sample’ image (150 × 200 pixels: 1.8 inches × 2.3 inches) in one of eight colors presented at the center of a touchscreen. Evaluation began when the monkey touched the sample image, at which point the screen became blank for a retention period. Following the retention period, four choice images (150 × 200 pixels) were presented, one in each corner of the screen. One of the four choice images matched the color of the sample image, whereas the three remaining ‘distractor’ images were drawn from the pool of remaining colors. A reinforcer was provided when the monkey touched the choice image that matched the color of the sample image. […] Test sessions comprised 96 trials or lasted for up to 45 min. […] Response latencies to sample and choice images were also recorded. Values reported reflect the proportion of correct responses collapsed over all retention intervals. Differences from vehicle were examined using repeated measures ANOVA.

[3] = system: rhesus monkeys; assay: Monkey Serial Choice Reaction Time (SCRT) task; format: in vivo; conditions: 10 mg/kg p.o.; for Next-day attention (SCRT, correct responses to shortest cues), 16 h after dosing: versus vehicle, 10 mg/kg
Text: Each SCRT trial was initiated with the appearance of 10 blue square ‘target’ images evenly distributed at 3-inch intervals around the perimeter of a touchscreen presented together with a centrally located circular ‘centering’ image (1.4 inch diameter circle). The task began with the monkey touching the centering image, which then turned gray. The monkey was then required to touch the centering image continuously throughout a variable pre-cue interval of 0.25-7.5 s. On completion of the pre-cue interval, one of the blue target images was cued by turning red for one of four cue durations before turning back to blue. To obtain a reward, the monkey was required to touch the target image that had been ‘cued’ red within a 5 s limited hold period. […] On completion of the trial, an inter-trial interval of 2 s was initiated prior to the next trial. […] If the monkey initiated a trial but removed its hand from the touchscreen prior to the appearance of the cue, the trial was terminated and the screen was blanked during a 2 s inter-trial interval. Sessions were terminated after 20 min. Cue location and duration were pseudo-randomly assigned. Cue duration and the target size were titrated for each subject on the basis of performance during previous baseline sessions to yield a performance of 60–80% correct responses for the trials of the shortest cue duration. The briefest cue duration varied from 0.04–0.1 s and the cues varied in size from 0.2–0.7 inches, although each cue had the same touch-sensitive area of 1.75 inches. Values reported in the current study reflect the proportion of correct responses to targets after cues of the shortest duration only.

[4] = rhesus monkeys, 10 mg/kg p.o.
[5] = system: rhesus monkeys; set-up: method as in PMID 23552372; conditions: 10 mg/kg, active-phase dosing, quantified over 2 h; cited from earlier work
[6] = in vivo; conditions: rhesus monkey, po, 10 mg/kg
[7] = system: rhesus monkeys; conditions: sleep-promoting doses; cited from earlier work

SMILES: CN1CCN(C(=O)O[C@H]2c3nccnc3C(=O)N2c2ccc(Cl)cn2)CC1 [Eszopiclone]
- Time for which reductions in active wake were detectable ([1]; 10 mg/kg p.o.): up to 6 h
- Active wake late in the inactive phase and next morning (residual sleep effect) [1]: did not demonstrate next-day sleep effects
- Active wake late in the inactive phase and next morning (residual sleep effect) ([1]; listed as eszopiclone): no consistent attenuation of active wake
- Next-day recognition memory (DMS), 14 h after dosing [2]: did not demonstrate next-day sleep effects or memory impairment
- Next-day recognition memory (DMS), 14 h after dosing ([2]; listed as eszopiclone): not
- Time for which effects on attention were observed [3]: up to 16 h
- Next-day attention (SCRT, correct responses to shortest cues), 16 h after dosing [3]: significantly impair attention
- Next-day attention (SCRT, correct responses to shortest cues), 16 h after dosing ([3]; listed as eszopiclone): significant deficits
- Time of plasma Cmax [4]: 0.5 h
- Attenuation of active wake relative to vehicle [5]: 55.0 min
- Cmax [6]: 1680 nM
- concentration at 17 h [6]: 535 nM
- Cognitive assessment in DMS and SCRT tasks within 2 h following treatment [7]: substantial deficits
